Results as given in the NIST ThermoML archive (doi:10.1016/j.fluid.2017.04.001).
Numbers after ± are expanded uncertainties.

Assay: wn = mass fraction of the nth substance listed
Details: 308.2 K, 101 kPa, Liquid, Cone and plate viscometry

viscosity (w1 = 0.05) [mPa·s]	viscosity (w1 = 0.1) [mPa·s]	viscosity (w1 = 0.2) [mPa·s]	viscosity (w1 = 0.3) [mPa·s]	Structure (SMILES)
0.85 ± 0.02	0.96 ± 0.03	1.24 ± 0.04	1.7 ± 0.07	C[N+](C)(C)CCO.NCC(=O)[O-] [2-hydroxy-N,N,N-trimethylethanaminium glycinate] + O
0.87 ± 0.02	0.98 ± 0.03	1.32 ± 0.05	1.92 ± 0.09	C[C@H](N)C(=O)[O-].C[N+](C)(C)CCO [2-hydroxy-N,N,N-trimethylethanaminium L-alaninate] + O
0.89 ± 0.02	1.06 ± 0.03	1.49 ± 0.06	2.2 ± 0.11	C[N+](C)(C)CCO.O=C([O-])[C@@H]1CCCN1 [2-hydroxy-N,N,N-trimethylethanaminium L-prolinate] + O
